Laboratory results published in PubChem BioAssay (NCI).
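All cell lines were grown in 96-well plates and treated with compound for 48 hours. GI50: concentration for 50% inhibition of growth. TGI: concentration producing complete growth inhibition.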

Assays:
Experiment in all cases: growth of human tumour cells (NCI), 48 h
BT-549 breast = tested on: BT-549 breast
MDA-MB-435 = tested on: MDA-MB-435
A498 renal = tested on: A498 renal
IGROV1 ovarian = tested on: IGROV1 ovarian
SW-620 colon = tested on: SW-620 colon
HT29 colon = tested on: HT29 colon
NCI-H226 lung = tested on: NCI-H226 lung
HS 578T breast = tested on: HS 578T breast
SF-295 CNS = tested on: SF-295 CNS
SN12C renal = tested on: SN12C renal
SK-OV-3 ovarian = tested on: SK-OV-3 ovarian
DU-145 prostate = tested on: DU-145 prostate
PC-3 prostate = tested on: PC-3 prostate
KM12 colon = tested on: KM12 colon
RXF 393 renal = tested on: RXF 393 renal
ACHN renal = tested on: ACHN renal
OVCAR-4 ovarian = tested on: OVCAR-4 ovarian
MDA-MB-468 breast = tested on: MDA-MB-468 breast
OVCAR-3 ovarian = tested on: OVCAR-3 ovarian
HL-60(TB) leukemia = tested on: HL-60(TB) leukemia
A549 NSCLC = tested on: A549 NSCLC
HCT-15 colon = tested on: HCT-15 colon
NCI-H522 lung = tested on: NCI-H522 lung
HOP-92 NSCLC = tested on: HOP-92 NSCLC
UACC-62 melanoma = tested on: UACC-62 melanoma
LOX IMVI melanoma = tested on: LOX IMVI melanoma
SNB-75 CNS = tested on: SNB-75 CNS
T-47D breast = tested on: T-47D breast
MDA-MB-231 breast = tested on: MDA-MB-231 breast
EKVX NSCLC = tested on: EKVX NSCLC

COc1ccc(/C=C/C(=O)c2ccc(N3CCN(C)CC3)cc2)c(C(F)(F)F)c1
GI50 (BT-549 breast): 14.5 µM | TGI (BT-549 breast): 29.1 µM | GI50 (MDA-MB-435): 11.3 µM | TGI (MDA-MB-435): 24.7 µM | GI50 (A498 renal): 16.5 µM | TGI (A498 renal): 30.8 µM | GI50 (IGROV1 ovarian): 15.4 µM | TGI (IGROV1 ovarian): 29 µM | GI50 (SW-620 colon): 11.2 µM | TGI (SW-620 colon): 23.9 µM | GI50 (HT29 colon): 4.88 µM | TGI (HT29 colon): 22.3 µM | GI50 (NCI-H226 lung): 12.4 µM | TGI (NCI-H226 lung): 28.3 µM | GI50 (HS 578T breast): 14.9 µM | TGI (HS 578T breast): 46.5 µM | GI50 (SF-295 CNS): 13.9 µM | TGI (SF-295 CNS): 27.2 µM | GI50 (SN12C renal): 13.3 µM | TGI (SN12C renal): 26.4 µM | GI50 (SK-OV-3 ovarian): 16.7 µM | TGI (SK-OV-3 ovarian): 33.5 µM | GI50 (DU-145 prostate): 14.9 µM | TGI (DU-145 prostate): 31.2 µM | GI50 (PC-3 prostate): 13.2 µM | TGI (PC-3 prostate): 40.4 µM | GI50 (KM12 colon): 11 µM | TGI (KM12 colon): 24.9 µM | GI50 (RXF 393 renal): 4.12 µM | TGI (RXF 393 renal): 18.9 µM | GI50 (ACHN renal): 15.1 µM | TGI (ACHN renal): 28.3 µM | GI50 (OVCAR-4 ovarian): 15.5 µM | TGI (OVCAR-4 ovarian): 34.4 µM | GI50 (MDA-MB-468 breast): 3.54 µM | TGI (MDA-MB-468 breast): 13.9 µM | GI50 (OVCAR-3 ovarian): 14.4 µM | TGI (OVCAR-3 ovarian): 29.3 µM | GI50 (HL-60(TB) leukemia): 4.87 µM | TGI (HL-60(TB) leukemia): 24.7 µM | GI50 (A549 NSCLC): 13.2 µM | TGI (A549 NSCLC): 30.1 µM | GI50 (HCT-15 colon): 4.61 µM | TGI (HCT-15 colon): 16.5 µM | GI50 (NCI-H522 lung): 15.9 µM | TGI (NCI-H522 lung): 31.9 µM | GI50 (HOP-92 NSCLC): 10.1 µM | TGI (HOP-92 NSCLC): 25.8 µM | GI50 (UACC-62 melanoma): 14.1 µM | TGI (UACC-62 melanoma): 27 µM | GI50 (LOX IMVI melanoma): 8.56 µM | TGI (LOX IMVI melanoma): 20.9 µM | GI50 (SNB-75 CNS): 11.7 µM | TGI (SNB-75 CNS): 24.5 µM | GI50 (T-47D breast): 13.7 µM | TGI (T-47D breast): 34.6 µM | GI50 (MDA-MB-231 breast): 16.8 µM | TGI (MDA-MB-231 breast): 30.5 µM | GI50 (EKVX NSCLC): 12.7 µM
